Results from patent US20260217706A1, “HETEROCYCLIC COMPOUNDS, PREPARATION METHOD THEREFOR AND USE THEREOF” (GUANGZHOU YUFAN NANTU BIOTECHNOLOGIES CO., LTD, priority 2023, published 2026).

Molecular target: CBL-B protein (Homo sapiens, UniProt Q13191)
Test: CBL-B binding experiment (Streptavidin-Tb cryptate / Ligand L1 displacement)
Details: 8 nM CBL-B protein, 25° C., 60 minutes; Ki=Relative IC50/2
Experimental: The reaction system mainly includes 1× buffer, 20 mM HEPES pH 7.5, 150 mM NaCl, 0.01% Triton X-100, 0.5 mM TCEP, and 0.1% ug/ml BSA. The compound is continuously diluted with DMSO for 10 concentration points, and 150 nL is transferred to the experimental plate. The experimental reaction begins after adding 8 nM of CBL-B protein and the reaction is carried out at 25° C. for 60 minutes. […] After an additional 60 minutes of incubation at room temperature, the experimental plate is read using an EnVision plate. The luminescence signal values were converted to percentage inhibition rates. Inhibition %=(Sample value−Maximum value)/(Minimum value−Maximum value)×100. The minimum value refers to the measured value in the wells without CBL-B protein but with DMSO and Ligand, while the maximum value refers to the measured value in the wells with DMSO, CBL-B protein, and Ligand. The IC50 values are calculated by XLFit (version 5.3.1.3) in Excel. Equation: Y=Bottom+(Top−Bottom)/(1+(IC50/X)^HillSlope); Ki=Relative IC50/2.

CBL-B protein, sequence (Q13191 whole entry): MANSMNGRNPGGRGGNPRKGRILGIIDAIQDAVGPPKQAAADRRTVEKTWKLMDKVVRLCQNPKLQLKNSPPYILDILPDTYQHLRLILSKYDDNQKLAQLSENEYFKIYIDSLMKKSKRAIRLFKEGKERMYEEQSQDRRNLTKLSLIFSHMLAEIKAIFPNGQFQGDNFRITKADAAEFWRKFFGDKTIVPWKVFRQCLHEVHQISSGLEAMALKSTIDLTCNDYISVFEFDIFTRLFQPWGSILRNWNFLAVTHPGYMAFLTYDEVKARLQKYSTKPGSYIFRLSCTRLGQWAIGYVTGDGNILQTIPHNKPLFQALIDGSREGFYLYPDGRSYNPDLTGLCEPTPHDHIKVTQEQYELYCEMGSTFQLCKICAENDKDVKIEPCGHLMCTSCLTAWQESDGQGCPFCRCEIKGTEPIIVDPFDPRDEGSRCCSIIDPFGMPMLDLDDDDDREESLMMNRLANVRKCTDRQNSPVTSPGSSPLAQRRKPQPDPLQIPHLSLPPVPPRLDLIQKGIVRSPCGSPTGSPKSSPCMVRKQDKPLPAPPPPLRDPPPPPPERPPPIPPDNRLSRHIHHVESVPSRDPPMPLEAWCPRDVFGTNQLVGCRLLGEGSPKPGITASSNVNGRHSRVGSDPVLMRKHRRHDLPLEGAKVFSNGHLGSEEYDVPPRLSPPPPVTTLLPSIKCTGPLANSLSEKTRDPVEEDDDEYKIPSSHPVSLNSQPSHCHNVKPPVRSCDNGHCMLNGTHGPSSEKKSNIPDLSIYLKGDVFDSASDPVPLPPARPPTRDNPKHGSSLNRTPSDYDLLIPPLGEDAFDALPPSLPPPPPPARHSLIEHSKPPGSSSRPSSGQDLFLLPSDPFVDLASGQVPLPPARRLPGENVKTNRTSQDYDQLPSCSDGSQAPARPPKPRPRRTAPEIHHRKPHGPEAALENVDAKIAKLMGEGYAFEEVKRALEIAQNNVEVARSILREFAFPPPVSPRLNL

Compound | Ki [nM]
Cn1cnnc1C1(c2cccc(-n3cc(C(F)(F)F)c4cc(CN5CCC(F)(F)CC5)[nH]c4c3=O)c2)CCC1 [Compound T075, 2-[(4,4-difluoro-1-piperidyl)methyl]-6-[3-[1-(4-methyl-1,2,4-triazol-3-yl)cyclobutyl]phenyl]-4-(trifluoromethyl)-1H-pyrrolo[2,3-c]pyridin-7-one] | < 50
C[C@H]1CCCN(Cc2cc3c(C(F)(F)F)cn(-c4cccc(-c5ccccc5-c5nncn5C)c4)c(=O)c3[nH]2)C1 [Compound T076, 2-[[(3S)-3-methyl-1-piperidyl]methyl]-6-[3-[2-(4-methyl-1,2,4-triazol-3-yl)phenyl]phenyl]-4-(trifluoromethyl)-1H-pyrrolo[2,3-c]pyridin-7-one] | < 50
Cn1cnnc1C1(c2cccc(-n3cc(C(F)(F)F)c4cc(CN5CCC[C@H](CC#N)C5)[nH]c4c3=O)c2)CCC1 [Compound T081, (R)-2-(1-((6-(3-(1-(4-methyl-4H-1,2,4-triazol-3-yl)cyclobutyl)phenyl)-7-oxo-4-(trifluoromethyl)-6,7-dihydro-1H-pyrrolo[2,3-c]pyridin-2-yl)methyl)piperidin-3-yl)acetonitrile] | < 50
CC(C)CN(Cc1cc2c(C(F)(F)F)cn(-c3cccc(C4(c5nncn5C)CCC4)c3)c(=O)c2[nH]1)CC(C)C [Compound T098, 2-[(diisobutylamino)methyl]-6-[3-[1-(4-methyl-1,2,4-triazol-3-yl)cyclobutyl]phenyl]-4-(trifluoromethyl)-1H-pyrrolo[2,3-c]pyridin-7-one] | < 50
COCC1(NCc2cc3c(C(F)(F)F)cn(-c4cccc([C@]5(c6nncn6C)C[C@H](OC)C5)c4)c(=O)c3[nH]2)CC1 [Compound T099, 6-(3-((1r,3r)-3-methoxy-1-(4-methyl-4H-1,2,4-triazol-3-yl)cyclobutyl)phenyl)-2-(((1-(methoxymethyl)cyclopropyl)amino)methyl)-4-(trifluoromethyl)-1,6-dihydro-7H-pyrrolo[2,3-c]pyridin-7-one] | < 50
COCC1(NCc2cc3c(C(F)(F)F)cn(-c4cccc([C@]5(c6nncn6C)C[C@@H](OC)C5)c4)c(=O)c3[nH]2)CC1 [Compound T100, 6-(3-((1s,3s)-3-methoxy-1-(4-methyl-4H-1,2,4-triazol-3-yl)cyclobutyl)phenyl)-2-(((1-(methoxymethyl)cyclopropyl)amino)methyl)-4-(trifluoromethyl)-1,6-dihydro-7H-pyrrolo[2,3-c]pyridin-7-one] | < 50
C[C@H]1CCCN(Cc2cc3c(C(F)(F)F)cn(-c4cc(F)cc([C@]5(c6nncn6C)C[C@@H](C)C5)c4)c(=O)c3[nH]2)C1 [Compound T101, 6-(3-fluoro-5-((1s,3R)-3-methyl-1-(4-methyl-4H-1,2,4-triazol-3-yl)cyclobutyl)phenyl)-2-(((S)-3-methylpiperidin-1-yl)methyl)-4-(trifluoromethyl)-1,6-dihydro-7H-pyrrolo[2,3-c]pyridin-7-one] | < 50
Cn1cnnc1C1(c2cccc(-n3cc(C(F)(F)F)c4cc(CN5CC6CC5CC6(F)F)[nH]c4c3=O)c2)CCC1 (stereo not shown) [Compound T105, 2-[(5,5-difluoro-2-azabicyclo[2.2.1]heptan-2-yl)methyl]-6-[3-[1-(4-methyl-1,2,4-triazol-3-yl)cyclobutyl]phenyl]-4-(trifluoromethyl)-1H-pyrrolo[2,3-c]pyridin-7-one] | < 50
Cn1cnnc1C1(c2cccc(-n3cc(C(F)(F)F)c4cc(CN5CC(F)CC(CO)C5)[nH]c4c3=O)c2)CCC1 (stereo not shown) [Compound T106, 2-[[3-fluoro-5-(hydroxymethyl)-1-piperidyl]methyl]-6-[3-[1-(4-methyl-1,2,4-triazol-3-yl)cyclobutyl]phenyl]-4-(trifluoromethyl)-1H-pyrrolo[2,3-c]pyridin-7-one] | < 50
CO[C@@H]1CCN(Cc2cc3c(C(F)(F)F)cn(-c4cccc(C5(c6nncn6C)CCC5)c4)c(=O)c3[nH]2)C[C@@H]1F [Compound T107, 2-(((3S,4R)-3-fluoro-4-methoxypiperidin-1-yl)methyl)-6-(3-(1-(4-methyl-4H-1,2,4-triazol-3-yl)cyclobutyl)phenyl)-4-(trifluoromethyl)-1,6-dihydro-7H-pyrrolo[2,3-c]pyridin-7-one] | < 50
CO[C@H]1CCN(Cc2cc3c(C(F)(F)F)cn(-c4cccc(C5(c6nncn6C)CCC5)c4)c(=O)c3[nH]2)C[C@H]1F [Compound T108, 2-(((3R,4S)-3-fluoro-4-methoxypiperidin-1-yl)methyl)-6-(3-(1-(4-methyl-4H-1,2,4-triazol-3-yl)cyclobutyl)phenyl)-4-(trifluoromethyl)-1,6-dihydro-7H-pyrrolo[2,3-c]pyridin-7-one] | < 50
Cn1cnnc1C1(c2cccc(-n3cc(C(F)(F)F)c4cc(CN5CCC(C(F)F)CC5)[nH]c4c3=O)c2)CCC1 [Compound T112, 2-[[4-(difluoromethyl)-1-piperidyl]methyl]-6-[3-[1-(4-methyl-1,2,4-triazol-3-yl)cyclobutyl]phenyl]-4-(trifluoromethyl)-1H-pyrrolo[2,3-c]pyridin-7-one] | < 50
CCN(CC)Cc1cc2c(C(F)(F)F)cn(-c3cccc([C@]4(c5nncn5C)C[C@@H](OC)C4)c3)c(=O)c2[nH]1 [Compound T117, 2-((diethylamino)methyl)-6-(3-((1s,3s)-3-methoxy-1-(4-methyl-4H-1,2,4-triazol-3-yl)cyclobutyl)phenyl)-4-(trifluoromethyl)-1,6-dihydro-7H-pyrrolo[2,3-c]pyridin-7-one] | < 50

Continued, values first:

Ki [nM] | Compound
< 50 | C[C@@H]1CN(Cc2cc3c(C4CC4)cn(-c4cccc(C5(Cc6nncn6C)COC5)c4)c(=O)c3[nH]2)CCC1(F)F [Compound T078, (R)-4-cyclopropyl-2-((4,4-difluoro-3-methylpiperidin-1-yl)methyl)-6-(3-(3-((4-methyl-4H-1,2,4-triazol-3-yl)methyl)oxetan-3-yl)phenyl)-1,6-dihydro-7H-pyrrolo[2,3-c]pyridin-7-one]
< 50 | C[C@H]1CN(Cc2cc3c(C4CC4)cn(-c4cccc(C5(Cc6nncn6C)COC5)c4)c(=O)c3[nH]2)CCC1(F)F [Compound T079, (S)-4-cyclopropyl-2-((4,4-difluoro-3-methylpiperidin-1-yl)methyl)-6-(3-(3-((4-methyl-4H-1,2,4-triazol-3-yl)methyl)oxetan-3-yl)phenyl)-1,6-dihydro-7H-pyrrolo[2,3-c]pyridin-7-one]
< 50 | C[C@H]1CCCN(Cc2cc3c(S(C)(=O)=O)cn(-c4cccc(C5(Cc6nncn6C)COC5)c4)c(=O)c3[nH]2)C1 [Compound T089, 2-[[(3S)-3-methyl-1-piperidyl]methyl]-4-methylsulfonyl-6-[3-[3-[(4-methyl-1,2,4-triazol-3-yl)methyl]oxetan-3-yl]phenyl]-1H-pyrrolo[2,3-c]pyridin-7-one]
< 50 | C[C@H]1CCCN(Cc2cc3c(Br)cn(-c4cccc(C5(Cc6nncn6C)COC5)c4)c(=O)c3[nH]2)C1 [Compound T090, (S)-4-bromo-6-(3-(3-((4-methyl-4H-1,2,4-triazol-3-yl)methyl)oxetan-3-yl)phenyl)-2-((3-methylpiperidin-1-yl)methyl)-1,6-dihydro-7H-pyrrolo[2,3-c]pyridin-7-one]
< 50 | CC(C)C1CN(C)CCN1Cc1cc2c(C3CC3)cn(-c3cccc([C@]4(c5nncn5C)C[C@@H](C)C4)c3)c(=O)c2[nH]1 (stereo partly shown) [Compound T094, 4-cyclopropyl-2-((2-isopropyl-4-methylpiperazin-1-yl)methyl)-6-(3-((1s,3s)-3-methyl-1-(4-methyl-4H-1,2,4-triazol-3-yl)cyclobutyl)phenyl)-1,6-dihydro-7H-pyrrolo[2,3-c]pyridin-7-one]
< 50 | CC(C)[C@@H]1CN(C)CCN1Cc1cc2c(C3CC3)cn(-c3cccc([C@]4(c5nncn5C)C[C@@H](C)C4)c3)c(=O)c2[nH]1 [Compound T095, 4-cyclopropyl-2-(((R)-2-isopropyl-4-methylpiperazin-1-yl)methyl)-6-(3-((1s,3S)-3-methyl-1-(4-methyl-4H-1,2,4-triazol-3-yl)cyclobutyl)phenyl)-1,6-dihydro-7H-pyrrolo[2,3-c]pyridin-7-one]
< 50 | C[C@H]1CN(Cc2cc3c(C(F)(F)F)cn(-c4cccc(C5(c6nncn6C)CCC5)c4)c(=O)c3[nH]2)CCC1(F)F [Compound T110, 2-[[(3S)-4,4-difluoro-3-methyl-1-piperidyl]methyl]-6-[3-[1-(4-methyl-1,2,4-triazol-3-yl)cyclobutyl]phenyl]-4-(trifluoromethyl)-1H-pyrrolo[2,3-c]pyridin-7-one]
50 to 100 | C[C@@H]1CCN(Cc2cc3c(C(F)(F)F)cn(-c4cccc(C5(c6nncn6C)CCC5)c4)c(=O)c3[nH]2)CC1(F)F [Compound T115, (R)-2-((3,3-difluoro-4-methylpiperidin-1-yl)methyl)-6-(3-(1-(4-methyl-4H-1,2,4-triazol-3-yl)cyclobutyl)phenyl)-4-(trifluoromethyl)-1,6-dihydro-7H-pyrrolo[2,3-c]pyridin-7-one]
50 to 100 | C[C@H]1CCN(Cc2cc3c(C(F)(F)F)cn(-c4cccc(C5(c6nncn6C)CCC5)c4)c(=O)c3[nH]2)CC1(F)F [Compound T116, (S)-2-((3,3-difluoro-4-methylpiperidin-1-yl)methyl)-6-(3-(1-(4-methyl-4H-1,2,4-triazol-3-yl)cyclobutyl)phenyl)-4-(trifluoromethyl)-1,6-dihydro-7H-pyrrolo[2,3-c]pyridin-7-one]
